Data as given in patent US7341717B2, “Therapeutic targets for treatment of HCV infections, methods of treating HCV infections and compounds useful therefor” (priority 2001, dated 2008).

Experiments:
[1] = test system: HCV replicon (subgenomic HCV RNA, NS5a); assay: HCV replicon RNA (Northern blot) and NS5a protein (Western blot) levels in HuH7 replicon cell lines; assay type: cell-based, Hepatitis C virus; details: for effect like all-trans-retinoic acid (GI-GPx upregulation, reduction of HCV RNA and NS5a): alone or in combination with each other or with selenium or a selenium salt; for reduction of HCV load: replicon cells
Description: The HuH7 pcDNA3 control cells and the replicon cell lines 5-15, 11-7 and 9-13 were plated as described in legend to FIG. 1 and after three days (Day 0) treated for two (Day 2) and four days (Day 4) with 1000U/ml interferon α (IFN-α). Then, cultures were harvested and RNA was prepared. 10 μg of total RNA were used for Northern blot analysis. For detection of GI-GPx (A) Probe 1 was used (see FIG. 1). The membranes were stripped and successively hybridized with probes for PKR (B) and neomycin phosphotransferase (Neo)(C). […]
(§1) Western blot analysis was performed using an NS5a antibody (FIG. 5). Expression of the transduced GI-GPx cDNA was monitored with a GI-GPx-specific antiserum (FIG. 6).
(§2) Replicon cells were incubated with alpha interferon (IFN-α) for two and four days. Northern blot analyses were performed with 10 μg total RNA. […] Interferon had no effect on the expression of GI-GPx in mock transfected HuH7 cells (cf FIG. 4).
(§3) As a model system for HCV replication there were utilized three replicon cell lines provided by Prof. R. Bartenschlager (University of Heidelberg, Germany). Cultures were treated for various periods of time with all trans-retinoic acid (RA) for comparative purposes and the other agents selenium, selenium salts, Vitamin D3 and retinoids, like 9-cis-retinoic acid, C1-C10 alkyl esters of 9-cis-retinoic acid, C1-C10 alkyl amides of 9-cis-retinoic acid, N-(4-hydroxyphenyl) retinamide (4-HPR), 6-[3-(1-adamantyl)-4-hydroxyphenyl]-2-naphthalene carboxylic acid (CD437; AHPN) (obtained from Sigma), paraquat, 4-[E-2-(5,6,7,8-tetrahydro-5,5,8,8-tetramethyl-2-naphthalenyl)-1-propenyl]benzoic acid, 4-hydroxyphenylretinamide, and 4-[(5,6,7,8-tetrahydro-5,5,8,8-tetramethyl-2-naphtalenyl)carboxamido]benzoic acid.
(§4) Levels of GI-GPx protein expression were measured by Western Blotting using antibodies provided by Prof. Brigelius-Flohe (University of Potsdam, Germany), and RNA levels were measured by Northern blotting using GI-GPx-specific oligonucleotides as probes. Levels of HCV RNA were investigated by Northern Blotting using a DNA oligonucleotide complementary to the neomycin phosphotransferase gene as probe. Concentration of the viral protein NS5a was determined by Western Blotting with an NS5a-specific antibody (Biogenesis, UK).

[2] = test system: GI-GPx; assay: GI-GPx expression in mock transfected HuH7 cells; assay type: cell-based, human
Description: (§5) The HuH7 pcDNA3 control cells and the replicon cell lines 5-15, 11-7 and 9-13 were plated as described in legend to FIG. 1 and after three days (Day 0) treated for two (Day 2) and four days (Day 4) with 1000U/ml interferon α (IFN-α). Then, cultures were harvested and RNA was prepared. 10 μg of total RNA were used for Northern blot analysis. For detection of GI-GPx (A) Probe 1 was used (see FIG. 1). The membranes were stripped and successively hybridized with probes for PKR (B) and neomycin phosphotransferase (Neo)(C).
as §2

[3] = test system: GI-GPx; assay: GI-GPx RNA and protein expression in HuH7 replicon cell lines; assay type: cell-based, human
Description: as §5, §1
The x-ray films were densitometrically scanned and the NS5a values compared with untransfected control cells (set as 100%) (FIG. 5) and the GI-GPx values compared with the maximum expression of the transduced GI-GPx cDNA obtained seven days post infection (set as 100%) (FIG. 6).
as §2, §3, §4

[4] = test system: HuH 9-13 replicon cells; assay: Paraquat sensitivity, Alamar Blue viability assay; assay type: cell-based, human; details: HuH 9-13, 24 hours, three independent experiments
Description: (§6) Cells were plated in 96-well microtiter plates (5×10^3 cells/0.35 cm^2) and after three days treated for 24 hours with the concentration of paraquat depicted. Cell viability was measured utilizing an Alamar-Blue assay and is reflected by relative fluorescence units (RFU) at 405 nm.
(§7) Replicon cell lines and control cells were incubated for 24 hours with various concentrations of paraquat (methylviologen), and viability of the cultures was measured using the Alamar Blue assay.
(§8) For quantification of the degree of cell death in cell culture we employed the viability assay based on the reduction of tetrazolium salt to formazan by mitochondrial dehydrogenase activity. The assay was performed in 96-well microtiter plates (Greiner, Frickenhausen, Germany) as described previously (T. Herget et al., 1998, J. Neurochem., 70: 47-58) but Alamar Blue (Roche Molecular Biochemicals, Germany) was used instead of MTT. The light absorbance at 405 nm of the medium including all factors but without cells was determined and subtracted from the absorption readings with cells. Eight wells per sample point were analyzed and each experiment was repeated independently at least three times.

[5] = test system: HuH pcDNA3 control cells; assay: Paraquat sensitivity, Alamar Blue viability assay; assay type: cell-based, human; details: 24 hours, three independent experiments
Description: as §6, §7, §8

[6] = test system: HuH 5-15 replicon cells; assay: Paraquat sensitivity, Alamar Blue viability assay; assay type: cell-based, human; details: HuH 5-15, 24 hours, three independent experiments
Description: as §6, §7, §8

[7] = test system: HuH 11-7 replicon cells; assay: Paraquat sensitivity, Alamar Blue viability assay; assay type: cell-based, human; details: HuH 11-7, 24 hours, three independent experiments
Description: as §6, §7, §8

[8] = test system: PKR (double strand RNA-dependent protein kinase); assay: Transcription of PKR in replicon cells; assay type: cell-based, human
Description: as §5
This fact implies that downregulation of HCV was promoted firstly by activation of the GI-GPx gene on transcriptional level by retinoic acid and secondly by the synthesis of selenoprotein(s) for which sodium selenite was needed. Indeed it could be shown that all-trans-retinoic acid-induced downregulation of HCV is independent of the innate immune response induced by interferon.

[9] = test system: replicon cells; assay: Cytotoxic effects in replicon cells; assay type: cell-based, human
Source text: As a model system for HCV replication there were utilized three replicon cell lines provided by Prof. R. Bartenschlager (University of Heidelberg, Germany).

Molecule | effect like all-trans-retinoic acid (GI-GPx upregulation, reduction of HCV RNA and NS5a) [1] | reduction of HCV load [1] | other results
CC1=C(/C=C/C(C)=C/C=C/C(C)=C/C=O)C(C)(C)CCC1 [retinoic acid adlehyde] | showed a similar effect | capable of reducing HCV load | –
IFN-α | – | – | GI-GPx expression [2]: no effect; GI-GPx expression ([3]; replicon cells, within four days of interferon treatment, 1000 U/ml): up-regulated; HCV-replicon RNA and HCV protein NS5a level ([1]; 1000 U/ml, two and four days): time- and dose-dependent down-regulation
C[n+]1ccc(-c2cc[n+](C)cc2)cc1 [paraquat] | showed a similar effect | capable of reducing HCV load | LD50 for paraquat [4]: 260 ± 50 µM; LD50 for paraquat [5]: 1250 ± 120 µM; LD50 for paraquat [6]: 270 ± 75 µM; LD50 for paraquat [7]: 310 ± 65 µM
O=C(O)c1ccc2cc(-c3ccc(O)c(C45CC6CC(CC(C6)C4)C5)c3)ccc2c1 [CD437, 6-[3-(1-adamantyl)-4-hydroxyphenyl]-2-naphthalene carboxylic acid] | showed a similar effect | capable of reducing HCV load | –
CC1=C(/C=C/C(C)=C/C=C/C(C)=C/C(=O)Nc2ccc(O)cc2)C(C)(C)CCC1 [4-HPR, N-(4-hydroxyphenyl) retinamide] | showed a similar effect | capable of reducing HCV load | –
CC1=C(/C=C/C(C)=C/C=C/C(C)=C/CO)C(C)(C)CCC1 [retinol] | showed a similar effect | capable of reducing HCV load | –
CC1=C(/C=C/C(C)=C/C=C/C(C)=C\C(=O)O)C(C)(C)CCC1 [13-cis retinoic acid] | showed a similar effect | capable of reducing HCV load | –
C/C(=C\c1ccc(C(=O)O)cc1)c1ccc2c(c1)C(C)(C)CCC2(C)C [4-[E-2-(5,6,7,8-tetrahydro-5,5,8,8-tetramethyl-2-naphthalenyl)-1-propenyl]benzoic acid] | showed a similar effect | capable of reducing HCV load | –
CC1(C)CCC(C)(C)c2cc(C(=O)Nc3ccc(C(=O)O)cc3)ccc21 [4-[(5,6,7,8-tetrahydro-5,5,8,8-tetramethyl-2-naphthalenyl)carboxamido]benzoic acid] | showed a similar effect | capable of reducing HCV load | –
CC1=C(/C=C/C(C)=C/C=C/C(C)=C/C(=O)O)C(C)(C)CCC1 [all-trans-retinoic acid] | – | – | induction of transcription of PKR [8]: did not induce; up-regulation of GI-GPx, RNA and protein level ([3]; 1 μM, seven days of incubation): three- to ten-fold; effect on GI-GPx expression ([3]; 1 μM, three days): hardly any effect; GI-GPx RNA and protein ([3]; six days): upregulation; toxic effects ([9]; six days, in the presence of selenium or a selenium salt): absence of toxic effects; downregulation of subgenomic HCV RNA and viral protein NS5a ([1]; 1 μM, seven days, depending on the cell line): two- to five-fold; effect on HCV expression ([1]; 1 μM, three days): hardly any effect; reduction of HCV RNA and HCV NS5a protein ([1]; six days, in the presence of selenium or a selenium salt like sodium selenite): two-to five-fold
O=[Se](O)O [sodium selenite] | – | – | severe cytotoxic effects ([9]; alone or both in combination): neither observed
CC1=C(/C=C/C(C)=C\C=C\C(C)=C\C(=O)O)C(C)(C)CCC1 [9-cis retinoic acid] | showed a similar effect | capable of reducing HCV load | –
CCOC(=O)/C=C(C)/C=C/C=C(C)/C=C/c1c(C)cc(OC)c(C)c1C [etretinate] | showed a similar effect | capable of reducing HCV load | –
